Data: patent US9695155B2, “Herbicidal substituted pyrimidinyloxy benzene compounds” (E. I. DU PONT DE NEMOURS AND COMPANY, priority 2013, dated 2017)

Assays:
wheat, winter = assay: Test C postemergence; type: in vivo, Triticum aestivum
How it was run: (§1)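 Whole-plant greenhouse test with surfactant-containing solvent formulation, applied preemergence to sown loam–sand pots or postemergence to 2–18 cm plants. Scored by eye 13 to 15 days on, 0–100 scale.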

giant foxtail [1] = assay: Test C postemergence; type: in vivo, Setaria faberii
How it was run: as §1

corn [2] = assay: Test C postemergence; type: in vivo, Zea mays
How it was run: as §1

blackgrass = assay: Test C postemergence; type: in vivo, Alopecurus myosuroides
Excerpt: (§2) Seeds of plant species selected from blackgrass (Alopecurus myosuroides), Italian ryegrass (Lolium multiflorum), wheat, winter (winter wheat, Triticum aestivum), galium (catchweed bedstraw, Galium aparine), corn (Zea mays), large (Lg) crabgrass (Digitaria sanguinalis), giant foxtail (Setaria faberii), johnsongrass (Sorghum halepense), lambsquarters (Chenopodium album), morningglory (Ipomoea coccinea), yellow nutsedge (Cyperus esculentus), pigweed (Amaranthus retroflexus), ragweed (common ragweed, Ambrosia elatior), soybean (Glycine max), barnyardgrass (Echinochloa crus-galli), oilseed rape (Brassica napus), waterhemp (common waterhemp, Amaranthus rudis), kochia (Kochia scoparia), wild oat (Avena fatua), surinam grass (Brachiaria decumbens), foxtail, green (green foxtail, Setaria viridis), goosegrass (Eleusine indica), bromegrass, downy (downy bromegrass, Bromus tectorum), nightshade (eastern black nightshade, Solanum ptycanthum), cocklebur (common cocklebur, Xanthium strumarium), cupgrass, woolly (woolly cupgrass, Eriochloa villosa), bermudagrass (Cynodon dactylon), sunflower, (common oilseed sunflower, Helianthus annuus), Russian thistle (Salsola kali), and velvetleaf (Abutilon theophrasti) were planted into a blend of loam soil and sand and treated preemergence with test chemicals formulated in a non-phytotoxic solvent mixture which included a surfactant.
(§3) At the same time, plants selected from these crop and weed species and also barley, winter (winter barley, Hordeum vulgare), windgrass (Apera spica-venti), chickweed (common chickweed, Stellaria media), deadnettle (henbit deadnettle, Lamium amplexicaule), and canarygrass (littleseed canarygrass, Phalaris minor) were planted in pots containing Redi-Earth® planting medium (Scotts Company, 14111 Scottslawn Road, Marysville, Ohio 43041) comprising spaghnum peat moss, vermiculite, wetting agent and starter nutrients and treated with postemergence applications of test chemicals formulated in the same manner. Plants ranged in height from 2 to 18 cm (1- to 4-leaf stage) for postemergence treatments. Treated plants and controls were maintained in a greenhouse for 13 to 15 days, after which time all species were compared to controls and visually evaluated. Plant response ratings, summarized in Table C, are based on a scale of 0 to 100 where 0 is no effect and 100 is complete control. A dash (-) response means no test result.

giant foxtail [3] = assay: Test A postemergence; type: in vivo, Setaria faberii
How it was run: (§4)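 Visual 0–100 rating (100 = complete control) taken about 10 d post-treatment relative to untreated checks. Preemergence: directed soil spray on sown loam/sand pots. Postemergence: seedlings 2–10 cm, 1–2 leaf. Non-phytotoxic solvent formulation with surfactant.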

yellow nutsedge = assay: Test C postemergence; type: in vivo, Cyperus esculentus; conditions: Cyperus, post-emergence
Excerpt: as §2, §3

kochia = assay: Test C postemergence; type: in vivo, Kochia scoparia
How it was run: as §1

corn [4] = assay: Test A postemergence; type: in vivo, Zea mays
How it was run: as §4

corn [5] = assay: Test C preemergence; type: in vivo, Zea mays; conditions: for Corn plant response rating: preemergence
How it was run: as §1

large (Lg) crabgrass = assay: Test C preemergence; type: in vivo, Digitaria sanguinalis; conditions: for Crabgrass, Large plant response rating: preemergence
How it was run: as §1

pigweed = assay: Test C preemergence; type: in vivo, Amaranthus retroflexus; conditions: for Pigweed plant response rating: preemergence
How it was run: as §1

lambsquarters = assay: Test C preemergence; type: in vivo, Chenopodium album; conditions: for Lambsquarters plant response rating: preemergence
How it was run: as §1

barnyardgrass = assay: Test C postemergence; type: in vivo, Echinochloa crus-galli; conditions: for Plant response rating, Barnyardgrass: scale 0 to 100 (0 no effect, 100 complete control)
How it was run: as §1

[6] = 16 g ai/ha, postemergence, 0 is no effect, 100 is complete control
[7] = 125 g ai/ha, postemergence, visual rating, scale 0 to 100 (0 no effect, 100 complete control)
[8] = Postemergence, 62 g ai/ha, scale 0 to 100 (0 no effect, 100 complete control)
[9] = 16 g ai/ha, scale 0 to 100 (0 no effect, 100 complete control)
[10] = 62 g ai/ha, scale 0 (no effect) to 100 (complete control)
[11] = 125 g ai/ha, scale 0 (no effect) to 100 (complete control)
[12] = Preemergence, 31 g ai/ha, scale 0 to 100, 0 no effect, 100 complete control
[13] = 1000 g ai/ha, 0 to 100 scale, 0 no effect, 100 complete control

Fc1cnc(Oc2ccccc2-n2cc(Br)cn2)nc1 [Compound 10, 2-[2-(4-bromo-1H-pyrazol-1-yl)phenoxy]-5-fluoropyrimidine]
plant injury at 125 g/ha (wheat, winter; Triticum aestivum, post-emergence, 125 g ai/ha, postemergence, read-out: Plant response rating (0 to 100), Wheat): 5%
plant injury at 250 g/ha (wheat, winter; Triticum aestivum, post-emergence, 250 g ai/ha, postemergence, read-out: Plant response rating (0 to 100), Wheat): 10%
plant injury at 31 g/ha (wheat, winter; Triticum aestivum, post-emergence, Postemergence, 31 g ai/ha, scale 0 to 100 (0 no effect, 100 complete control), 13 to 15 days, read-out: Plant response rating, Wheat): 5%
plant injury at 62 g/ha (wheat, winter; Triticum aestivum, post-emergence, Postemergence, 62 g ai/ha, scale 0 to 100 (0 no effect, 100 complete control), read-out: Plant response rating, Wheat): 5%
pest or weed control at 125 g/ha (giant foxtail [1]; Setaria faberi, post-emergence, 125 g ai/ha, postemergence, read-out: Plant response rating (0 to 100), Foxtail, Giant): 5%
pest or weed control at 250 g/ha (giant foxtail [1]; Setaria faberi, post-emergence, 250 g ai/ha, postemergence, read-out: Plant response rating (0 to 100), Foxtail, Giant): 5%
pest or weed control at 31 g/ha (giant foxtail [1]; Setaria faberi, post-emergence, Postemergence, 31 g ai/ha, scale 0 to 100 (0 no effect, 100 complete control), 13 to 15 days, read-out: Plant response rating, Foxtail, Giant): 0%
pest or weed control at 62 g/ha (giant foxtail [1]; Setaria faberi, post-emergence, Postemergence, 62 g ai/ha, scale 0 to 100 (0 no effect, 100 complete control), read-out: Plant response rating, Foxtail, Giant): 0%
plant injury at 125 g/ha (corn [2]; Zea mays, post-emergence, 125 g ai/ha, postemergence, read-out: Plant response rating (0 to 100), Corn): 5%
plant injury at 250 g/ha (corn [2]; Zea mays, post-emergence, 250 g ai/ha, postemergence, read-out: Plant response rating (0 to 100), Corn): 20%
Corn plant response rating (crop injury, 0 = no effect, 100 = complete kill) at 31 g/ha (corn [2]; Zea mays, post-emergence, Postemergence, 31 g ai/ha, scale 0 to 100 (0 no effect, 100 complete control), 13 to 15 days): 5%
Corn plant response rating (crop injury, 0 = no effect, 100 = complete kill) at 62 g/ha (corn [2]; Zea mays, post-emergence, Postemergence, 62 g ai/ha, scale 0 to 100 (0 no effect, 100 complete control)): 5%
pest or weed control at 125 g/ha (blackgrass; Alopecurus myosuroides, post-emergence, 125 g ai/ha, postemergence, read-out: Plant response rating (0 to 100), Blackgrass): 40%
pest or weed control at 250 g/ha (blackgrass; Alopecurus myosuroides, post-emergence, 250 g ai/ha, postemergence, read-out: Plant response rating (0 to 100), Blackgrass): 75%
pest or weed control at 31 g/ha (blackgrass; Alopecurus myosuroides, post-emergence, Postemergence, 31 g ai/ha, scale 0 to 100 (0 no effect, 100 complete control), 13 to 15 days, read-out: Plant response rating, Blackgrass): 5%
pest or weed control at 62 g/ha (blackgrass; Alopecurus myosuroides, post-emergence, Postemergence, 62 g ai/ha, scale 0 to 100 (0 no effect, 100 complete control), read-out: Plant response rating, Blackgrass): 5%
pest or weed control at 125 g/ha (giant foxtail [3]; Setaria faberi, post-emergence, 240 h, 125 g ai/ha, 0 to 100 scale where 0 is no effect and 100 is complete control, read-out: Plant response rating, Foxtail, Giant): 50%
pest or weed control at 500 g/ha (giant foxtail [3]; Setaria faberi, post-emergence, 240 h, 500 g ai/ha, 0 to 100 scale, 0 no effect, 100 complete control, read-out: Plant response rating Foxtail, Giant): 90%
pest or weed control at 125 g/ha (yellow nutsedge; 125 g ai/ha, postemergence, read-out: Plant response rating (0 to 100), Nutsedge, Yellow): 5%
pest or weed control at 250 g/ha (yellow nutsedge; 250 g ai/ha, postemergence, read-out: Plant response rating (0 to 100), Nutsedge, Yellow): 5%
pest or weed control at 31 g/ha (yellow nutsedge; Postemergence, 31 g ai/ha, scale 0 to 100 (0 no effect, 100 complete control), 13 to 15 days, read-out: Plant response rating, Nutsedge, Yellow): 0%
pest or weed control at 62 g/ha (yellow nutsedge; Postemergence, 62 g ai/ha, scale 0 to 100 (0 no effect, 100 complete control), read-out: Plant response rating, Nutsedge, Yellow): 5%
pest or weed control at 125 g/ha (kochia; Bassia scoparia, post-emergence, 125 g ai/ha, postemergence, read-out: Plant response rating (0 to 100), Kochia): 95%
pest or weed control at 250 g/ha (kochia; Bassia scoparia, post-emergence, 250 g ai/ha, postemergence, read-out: Plant response rating (0 to 100), Kochia): 98%
pest or weed control at 31 g/ha (kochia; Bassia scoparia, post-emergence, Postemergence, 31 g ai/ha, scale 0 to 100 (0 no effect, 100 complete control), 13 to 15 days, read-out: Plant response rating, Kochia): 20%
pest or weed control at 62 g/ha (kochia; Bassia scoparia, post-emergence, Postemergence, 62 g ai/ha, scale 0 to 100 (0 no effect, 100 complete control), read-out: Plant response rating, Kochia): 40%
Corn plant response rating (crop injury, 0 = no effect, 100 = complete kill) at 125 g/ha (corn [4]; Zea mays, post-emergence, 240 h, 125 g ai/ha, 0 to 100 scale where 0 is no effect and 100 is complete control): 20%
plant injury at 500 g/ha (corn [4]; Zea mays, post-emergence, 240 h, 500 g ai/ha, 0 to 100 scale, 0 no effect, 100 complete control, read-out: Plant response rating Corn): 50%

N#Cc1cn(-c2c(Br)cccc2Oc2ncc(Cl)cn2)nn1 [Compound 116]
Plant response rating (0 to 100), Wheat (wheat, winter; [6]): 0
Plant response rating, Wheat (wheat, winter; [7]): 5
Plant response rating, Wheat (wheat, winter; [8]): 5
Plant response rating (0 to 100), Foxtail, Giant (giant foxtail [1]; [6]): 30
Plant response rating, Foxtail, Giant (giant foxtail [1]; [7]): 10
Plant response rating, Foxtail, Giant (giant foxtail [1]; [8]): 40
Plant response rating (0 to 100), Corn (corn [2]; [6]): 0
Plant response rating, Corn (corn [2]; [7]): 5
Plant response rating, Corn (corn [2]; [8]): 5
Corn plant response rating (corn [5]; [9]): 0
Corn plant response rating (corn [5]; [10]): 5
Corn plant response rating (corn [5]; [11]): 25
Plant response rating, Corn (corn [5]; [12]): 0
Plant response rating (0 to 100), Blackgrass (blackgrass; [6]): 0
Plant response rating, Blackgrass (blackgrass; [7]): 25
Plant response rating, Blackgrass (blackgrass; Postemergence, 31 g ai/ha, scale 0 to 100 (0 no effect, 100 complete control), 13 to 15 days): 5
Plant response rating, Blackgrass (blackgrass; [8]): 10
Plant response rating, Foxtail, Giant (giant foxtail [3]; [13]): 90
Crabgrass, Large plant response rating (large (Lg) crabgrass; [9]): 5
Crabgrass, Large plant response rating (large (Lg) crabgrass; [10]): 100
Crabgrass, Large plant response rating (large (Lg) crabgrass; [11]): 100
Plant response rating, Crabgrass, Large (large (Lg) crabgrass; [12]): 100
Pigweed plant response rating (pigweed; [9]): 75
Pigweed plant response rating (pigweed; [10]): 100
Pigweed plant response rating (pigweed; [11]): 100
Plant response rating, Pigweed (pigweed; [12]): 100
Plant response rating (0 to 100), Kochia (kochia; [6]): 70
Plant response rating, Kochia (kochia; [7]): 95
Plant response rating, Kochia (kochia; [8]): 90
Lambsquarters plant response rating (lambsquarters; [9]): 10
Lambsquarters plant response rating (lambsquarters; [10]): 85
Lambsquarters plant response rating (lambsquarters; [11]): 100
Plant response rating, Lambsquarters (lambsquarters; [12]): 95
Plant response rating (0 to 100), Barnyardgrass (barnyardgrass; [6]): 0
Plant response rating, Barnyardgrass (barnyardgrass; 125 g ai/ha, postemergence, visual rating): 20
Plant response rating, Barnyardgrass (barnyardgrass; Postemergence, 31 g ai/ha, 13 to 15 days): 5
Plant response rating, Barnyardgrass (barnyardgrass; Postemergence, 62 g ai/ha): 5
Plant response rating, Corn (corn [4]; [13]): 60
